Test systems include OVCAR-3; HCC 2998; CCRF-CEM; UACC-257; SR; SF-295; NCI-H460; HCT-116; MOLT-4; NCI-H522; UO-31; KM12; M14; LOX IMVI; A498; HT-29; U-251; A549; HOP-92.
Assay in all cases: inhibition of tumour cell growth, NCI panel, 48 h

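The compound was tested at five concentrations on cells cultured in 96-well plates, with a 48-hour exposure period. The concentration for 50% growth inhibition is given as GI50.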 The source made the active and inactive calls. Rule as the data show it: active = GI50 up to about 1.1 µM and inactive = higher. Some results are limits rather than exact numbers.

Turning to `CC1=C(C(=O)NCc2ccccc2)C(c2ccccc2O)C(C(=O)NCc2ccccc2)=C(C)N1`, the GI50 with OVCAR-3 was 17.4 µM (inactive); in the experiment on HCC 2998, 21 µM (inactive); in the experiment on CCRF-CEM, 26.5 µM (inactive); with UACC-257, 16.1 µM (inactive); with SR, 28.9 µM (inactive); with SF-295, 21.1 µM (inactive). Further, the GI50 in the experiment with NCI-H460 was 18.4 µM (inactive); in the experiment on HCT-116, 14.4 µM (inactive); with MOLT-4 it was 31.3 µM (inactive); with NCI-H522, 16.5 µM (inactive); in the experiment with UO-31 it was 16.7 µM (inactive); with KM12, 16.6 µM (inactive). The GI50 in the experiment on M14 was 17.9 µM (inactive); in the experiment on LOX IMVI, 14.5 µM (inactive); in the experiment on A498, 19 µM (inactive); in the experiment on HT-29 it was 19.5 µM (inactive); in the experiment with U-251, 15.5 µM (inactive); with A549, 20.8 µM (inactive). Besides, the GI50 with HOP-92 is 22.4 µM (inactive).

As to `COC(=O)C(/C(=N\O)C(=O)Nc1ccc(Br)cc1)c1nc2ccccc2nc1O` (stereo unspecified), the GI50 with OVCAR-3 is 23.1 µM (inactive); in the experiment on HCC 2998 it was 92 µM (inactive); in the experiment with CCRF-CEM, 25.3 µM (inactive); in the experiment with UACC-257, > 100 µM (inactive); in the experiment with SR, 18.2 µM (inactive); with SF-295 it was > 100 µM (inactive). Moreover, the GI50 in the experiment on NCI-H460 was 89.9 µM (inactive); in the experiment with HCT-116 it was 55.8 µM (inactive); with MOLT-4, 26.1 µM (inactive); with NCI-H522, 17.1 µM (inactive); with UO-31, > 100 µM (inactive); with KM12, > 100 µM (inactive). Moreover, the GI50 in the experiment on M14 was 58.9 µM (inactive); with LOX IMVI, 22.7 µM (inactive); in the experiment on A498 it was 61 µM (inactive); in the experiment with HT-29, 57.1 µM (inactive); in the experiment on U-251, 34 µM (inactive); in the experiment on A549 it was > 100 µM (inactive). For the same molecule, in the experiment on HOP-92, the GI50 was 35.4 µM (inactive).

In the case of `COc1cccc(/C=C2\CCC(CCN(C)C)(C3=CCCC3)C2=O)c1` (stereo unspecified), the GI50 is 17.3 µM (inactive) with OVCAR-3; 16.7 µM (inactive) with HCC 2998; 19.1 µM (inactive) in the experiment with CCRF-CEM; 15.5 µM (inactive) with UACC-257; 35.5 µM (inactive) in the experiment on SR; 17 µM (inactive) in the experiment on SF-295. In addition, the GI50 in the experiment with NCI-H460 is 15.8 µM (inactive); in the experiment on HCT-116, 13.8 µM (inactive); with MOLT-4, 13.9 µM (inactive); in the experiment with NCI-H522, 13.4 µM (inactive); with UO-31 it was 13.6 µM (inactive); in the experiment on KM12 it was 17.2 µM (inactive). The GI50 in the experiment with M14 was 14.4 µM (inactive); in the experiment on LOX IMVI it was 15.6 µM (inactive); in the experiment with A498, 15.7 µM (inactive); with HT-29 it was 13.8 µM (inactive); in the experiment on U-251, 16.6 µM (inactive); with A549 it was 16.1 µM (inactive). For the same molecule, the GI50 in the experiment on HOP-92 was 12.3 µM (inactive).

With `O=C1CC[C@@]2(O)[C@H]3Cc4ccc(-c5cccc(O)c5)c5c4[C@@]2(CCN3CC2CC2)[C@H]1O5`, the GI50 in the experiment with OVCAR-3 is 22 µM (inactive); in the experiment on HCC 2998 it was 16.4 µM (inactive); in the experiment with CCRF-CEM it was < 0.01 µM (active); with UACC-257, 1.01 µM (active); with SR, 26.3 µM (inactive); in the experiment with SF-295 it was 19.8 µM (inactive). Also, the GI50 in the experiment on NCI-H460 is 0.839 µM (active); in the experiment with HCT-116 it was 11.4 µM (inactive); in the experiment with MOLT-4, 22.9 µM (inactive); in the experiment with NCI-H522, 16.1 µM (inactive); with UO-31, 14.1 µM (inactive); in the experiment on KM12 it was 10 µM (inactive). The GI50 with M14 is 12.1 µM (inactive); with LOX IMVI it was 12.9 µM (inactive); with A498 it was 21.3 µM (inactive); with HT-29 it was 11.3 µM (inactive); in the experiment on U-251 it was 8.38 µM (inactive); in the experiment with A549, 9.55 µM (inactive). Moreover, the GI50 in the experiment on HOP-92 is 25.7 µM (inactive).
